Results: article PMC4459817, “Vasculotide reduces endothelial permeability and tumor cell extravasation in the absence of binding to or agonistic activation of Tie2” (EMBO Molecular Medicine, 2015)

Tested on: mouse Tie2-Fc (extracellular domain of Tie2)
Assay: pull-down assay, mouse Tie2-Fc
Format: binding
Conditions: mouse Tie2-Fc on protein A sepharose; rhAng1 20 ng or VT 100 ng, pH 7.4, 4°C; Fig9A,B
From the text: To better understand the difficulties we had in observing Tie2 activation by VT, we sought to characterize the binding affinity and kinetics of VT to Tie2. Purified human or mouse Tie2-Fc (i.e., Fc-conjugated extracellular domains of Tie2) were first coupled to protein A sepharose beads for pull-down experiments (Fig9A and B) or immobilized on a Biacore CM5 sensor chip for surface plasmon resonance (SPR) experiments (Fig9C and Supplementary Fig S3).
Figure 9 Binding of Vasculotide vs. Ang1 variants to the extracellular domain of Tie2 • A–B Pull-down assay. Input ligands—rhAng1 (A) and VT (B)—were incubated with either protein A sepharose beads only, bead-conjugated mouse Tie2-Fc (mTie2), or bead-conjugated human Tie2-Fc (hTie2). […] The ‘unbound’ fraction is 7% of residual/free ligands remaining in the supernatant. • C Quantitative kinetics analysis by SPR. All analytes were run at increasing concentrations of 0.625, 1.25, 2.5, 5, and 10 nM, at 37°C and pH 7.4. […] Source data are available online for this figure. […]
Semi-quantitative densitometry analysis of immunoblots was performed using the ChemiGenius2 bioimaging system and GeneSnap/GeneTools software (Syngene). […]

Molecule | pull-down by Tie2-Fc
CHHHRHSF [Vasculotide, 4-armed maleimide-functionalized polyethylene glycol (PEG) backbone to link together four cysteine-capped T7 peptides, that is, CHHHRHSF] | did not pull down any appreciable levels
recombinant human Ang1 (rhAng1) (ligand, UniProt Q15389 16-498, looked up, angiopoietin-1, human, recombinant; also called angiopoietin-1; source: bought: R&D Systems (named for the Boyden chamber experiments)) HIGCSNQRRSPENSGRRYNRIQHGQCAYTFILPEHDGNCRESTTDQYNTNALQRDAPHVEPDFSSQKLQHLEHVMENYTQWLQKLENYIVENMKSEMAQIQQNAVQNHTATMLEIGTSLLSQTAEQTRKLTDVETQVLNQTSRLEIQLLENSLSTYKLEKQLLQQTNEILKIHEKNSLLEHKILEMEGKHKEELDTLKEEKENLQGLVTRQTYIIQELEKQLNRATTNNSVLQKQQLELMDTVHNLVNLCTKEGVLLKGGKREEEKPFRDCADVYQAGFNKSGIYTIYINNMPEPKKVFCNMDVNGGGWTVIQHREDGSLDFQRGWKEYKMGFGNPSGEYWLGNEFIFAITSQRQYMLRIELMDWEGNRAYSQYDRFHIGNEKQNYRLYLKGHTGTAGKQSSLILHGADFSTKDADNDNCMCKCALMLTGGWWFDACGPSNLNGMFYTAGQNHGKLNGIKWHYFKGPSYSLRSTTMMIRPLDF | effectively pulled down the majority
